Assay results reported in patent publication US20040033982A1, “Viral inhibition by n-docosanol” (priority 2001, published 2004).

How the values were obtained:
Assay type in all cases: cell-based
HSV-1(KOS)gL86 = test: Entry of HSV-1(KOS)gL86 into HEp-2 cells (beta-galactosidase, OD600)
Description: After attachment of HEp2 cells to culture wells, n-docosanol-vehicle, vehicle alone, or no agent (control) was added. Five to six hours after infection, the cells were processed, X-gal was added, and the absorbance at 600 nm was determined.
Twenty-four hours before infection, cultured cells were seeded into 24-well (16-mm) plates at 2.5×10^6 cells/well in 0.5 ml cDMEM supplemented with 10% fetal bovine serum (FES). After cell attachment (4-6 h later) heparin, n-docosanol-surfactant, or surfactant alone was added to the cells in 0.5 ml DMEM/10% FES. The agents were dissolved in the medium at two times the desired final concentration. For infection, 0.7 ml of medium was removed from each well and 25 μl of virus suspension was added to the remaining 0.3 ml to give a virus dose of at least 20 p.f.u./cell The plates were rocked at 37° C. for 3 h and then put in a 37° C. […]
At 5-6 h after infection, the cells were fixed with PES containing 2% formaldehyde and 0.2% glutaraldehyde, washed, then permeabilized with 0.02% NP-40, 0.01% deoxycholate and 2 mM MgCl2. […] To quantify the amount of color in each well the glycerol was removed from all wells that were then washed 3× with distilled H2O. DMSO (0.6 ml) was added to solubilize the dye and, after transferring 100 μl of each sample well from the 24-well plate to a 96-well plate, the OD600 was recorded using a 96-well plate reader. […]

HSV-I = test: Binding of [3H]HSV-I to Vero cells; conditions: virus at 2 p.f.u./cell; n-docosanol 15 mM
Text: Attachment of HSV-I to specific cell surface receptors is unaffected in n-docosanol-treated cells. Previous studies have verified that attachment of HSV-1 to specific cell surface receptors is unaffected in n-docosanol-treated cells. […] Heparin inhibited this interaction 96%.

wild-type HSV-2 = test: Plaque formation by wild-type HSV-2 in Vero cells; conditions: FIG. 7, Panel A
Description: (§1) FIG. 7 depicts data showing that n-docosanol inhibits acyclovir-resistant HSV-2. Vero cells were cultured in 35-mm wells (6×10^5 cells per well) in medium alone (=none) or in the presence of the indicated concentration of acyclovir, n-docosanol-Pluronic F-68 suspension or control suspension (Pluronic F-68 only). The cultures were inoculated 24 hours later with 150 PFU of either wild-type HSV-2 or an acyclovir-resistant laboratory isolate from the wild-type HSV-2 that was plaque purified and passaged in 20 μg/ml acyclovir 44 hours later, the plates were incubated, fixed, stained, and scored for numbers of plaques. The data presented are means of plaques scored from duplicate cultures. The percent inhibition observed in cultures treated with acyclovir or n-docosanol relative to untreated control cultures is denoted in parentheses.

[1] = system: acyclovir-resistant HSV-2; test: Plaque formation by acyclovir-resistant HSV-2 in Vero cells; conditions: FIG. 7, Panel B
Description: as §1

Molecule	concentration at which inhibition appeared to be complete (HSV-1(KOS)gL86; examined between 1 and 10 μg/ml)	inhibition of [3H]HSV-I binding (HSV-I)	inhibition of plaque formation (wild-type HSV-2)	inhibition of plaque formation [1]	inhibition of the beta-galactosidase signal (HSV-1(KOS)gL86)
Heparin [reference compound]	6 µg/mL	96%	–	–	–
Nc1nc2c(ncn2COCCO)c(=O)[nH]1 [acyclovir, reference compound]	–	–	inhibit plaque formation by wild type HSV-2 equally	not inhibited	not inhibited
